# Assays:
# LNCaP = assay: ATP-dependent proliferation/viability assay (Cell Titer Glo), 3 days; conditions: 3 days
# Procedure: (§1) The experiment was performed to test and to define the antitumor activity in vitro of cortexolone 17α-benzoate on LNCaP (AR+) and PC3 (AR^−), representative of Prostatic cancer cell lines with Androgen Receptor (AR) positive or negative expression, respectively. The experimental method consisted of: • 1. […] After 24 hours, 10 nM DHT (dihydrotestosterone) with or without anti-androgen compounds, or DMSO vehicle (negative control) was added to the cultures. • 3.
# as §1, with “define” for “define the”, “17α-valerate-21-propionate (CB-03-10)” for “17α-benzoate”, “AR” for “Androgen Receptor (AR)”
# PC3 = assay: as above; conditions: 3 days
# Procedure: as §1
# as §1, with “define” for “define the”, “17α-valerate-21-propionate (CB-03-10)” for “17α-benzoate”, “AR” for “Androgen Receptor (AR)”
# Glucocorticoid Receptor [1] = biological target: T1, Glucocorticoid Receptor (Homo sapiens, UniProt P04150); assay: GR transcriptional reporter assay, antagonist mode; type: cell-based; conditions: inhibition of luminescence induced by Dexamethasone; compared to RU486; FIG. 7
# T1 construct: endogenous in cells; host or cells: human kidney epithelial cells
# T1 sequence (P04150 1-777): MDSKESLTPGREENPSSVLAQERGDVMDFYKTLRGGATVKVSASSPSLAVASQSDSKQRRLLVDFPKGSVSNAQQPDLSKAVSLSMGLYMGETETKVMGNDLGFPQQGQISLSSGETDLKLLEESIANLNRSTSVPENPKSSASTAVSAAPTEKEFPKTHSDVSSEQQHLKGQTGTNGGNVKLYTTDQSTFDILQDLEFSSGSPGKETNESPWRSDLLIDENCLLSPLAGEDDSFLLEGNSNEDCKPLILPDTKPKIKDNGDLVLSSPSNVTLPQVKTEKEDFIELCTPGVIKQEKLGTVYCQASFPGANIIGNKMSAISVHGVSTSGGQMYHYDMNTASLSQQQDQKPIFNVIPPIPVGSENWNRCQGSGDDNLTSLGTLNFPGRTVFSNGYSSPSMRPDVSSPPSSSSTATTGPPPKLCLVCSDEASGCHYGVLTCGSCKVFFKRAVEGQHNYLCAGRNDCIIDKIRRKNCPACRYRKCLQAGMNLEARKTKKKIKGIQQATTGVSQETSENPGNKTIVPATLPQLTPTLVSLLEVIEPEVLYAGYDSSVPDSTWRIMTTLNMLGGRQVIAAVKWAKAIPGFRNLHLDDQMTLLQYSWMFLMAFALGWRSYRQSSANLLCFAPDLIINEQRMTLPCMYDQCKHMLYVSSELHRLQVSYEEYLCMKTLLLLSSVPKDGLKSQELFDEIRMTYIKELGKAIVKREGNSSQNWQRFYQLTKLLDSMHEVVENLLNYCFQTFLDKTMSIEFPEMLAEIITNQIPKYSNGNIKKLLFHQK
# Procedure: (§2) The androgen and glucocorticoid hormones elicit divergent and often opposing effects in cells, tissues, and animals. […] CB-03-10 GR antagonist and agonist activities were tested in an in vitro assay. Briefly, human kidney epithelial cells were transfected with DNA construct containing GR binding sites linked to luminescent based reporter molecule. After 24 hours, cells were treated under antagonist or agonist modes. After an additional 24 hours, luminescence which is proportional to GR agonist transcriptional activity was quantitated.
# Antagonist Assay was based on inhibition of luminescence induced by Dexamethasone (Dex).
# The antagonist activity of CB-03-10 was compared to a known GR antagonist, Mifepristone (also called RU486) as shown in FIG. 7.
# Glucocorticoid Receptor [2] = biological target: T1, Glucocorticoid Receptor; assay: GR transcriptional reporter assay, agonist mode; type: cell-based
# Procedure: as §2
# Agonist Assay—was based on induction of luminescence by CB-03-10
# The agonist activity of CB-03-10 was compared to a RU486 which is known to not have agonist activity.
# [3] = In vitro metabolism in human plasma; type: in vitro ADME; conditions: 37 C; liquid chromatography; FIG. 13
# Procedure: (§3) To obtain some insights on the metabolism of CB-03-10 in human and rat plasma, a specific assay was designed. Briefly the compound was incubated at different time in human and rat plasma at 37 C. After incubation the samples were tested for presence of the intact compound by liquid chromatography.
# [4] = In vitro metabolism in rat plasma; type: in vitro ADME; conditions: 37 C; liquid chromatography; FIG. 13
# Procedure: as §3
# [5] = In vivo pharmacokinetic in mouse plasma; conditions: mice; iv 20 mg/kg, SC 40 mg/kg, PO 40 mg/kg; after 1 hour
# Procedure: The pharmacokinetic of CB-03-10 was evaluated in plasma of mice after intravenous (IV), subcutaneous (SC) and oral administration (PO).
# Mice (3 per group) were administered with the following doses, blood was collected at the indicated times. Plasma samples were analyzed by HPLC-MS/MS.
# stimulated PBMC = assay: IC50 on stimulated PBMC (actively dividing cells)
# Procedure: The IC^50 in PBMC were tested in 2 different activation status:
# stimulated—actively dividing cells
# IC50 of the compounds was determined on fresh cells isolated from human blood (PBMC). The compounds toxicity was determined as follow: Therapeutic Index=Safety/Potency=IC50 stimulated PBMC_/IC50 cancer cell
smiles,measurement,setting,value
"CCCCC(=O)O[C@]1(C(=O)COC(=O)CC)CC[C@H]2[C@@H]3CCC4=CC(=O)CC[C@]4(C)[C@H]3CC[C@@]21C [CB-03-10, cortexolone 17α-valerate-21-propionate]",IC50,"LNCaP; Homo sapiens, LNCaP, 72 h, LNCaP (AR+), 10 nM DHT, Examples 1-2 Experiment 1, sigmoidal dose response fit",13 µM
same,Therapeutic Index = IC50 resting PBMC/IC50 cancer cell,LNCaP; human,9
same,Therapeutic Index = IC50 stimulated PBMC/IC50 cancer cell,LNCaP; human,9
same,IC50,"PC3; Homo sapiens, 72 h, PC3 (AR-), 10 nM DHT, Examples 1-2 Experiment 2, nonlinear regression least squares fit, additional experiments",50 µM
same,Therapeutic Index = IC50 resting PBMC/IC50 cancer cell,PC3; human,2
same,Therapeutic Index = IC50 stimulated PBMC/IC50 cancer cell,PC3; human,2
same,GR antagonist activity,Glucocorticoid Receptor [1],potent antagonist (10 times less than RU486)
same,GR agonist activity relative to that of 50 nM Dex,Glucocorticoid Receptor [2]; at very high concentrations,20%
same,GR agonist activity,"Glucocorticoid Receptor [2]; induction of luminescence, FIG. 8",essentially ineffective as GR agonist
same,degradation in human plasma,[3],rapidly degraded to CB-03-05 in human plasma
same,degradation in rat plasma,[4],degraded more rapidly in rat compared to human plasma
same,plasma level of intact compound,[5],undetectable
same,Therapeutic Index = IC50 resting PBMC/IC50 cancer cell,"stimulated PBMC; PBMC Stim, healthy lymphocyte, Table IV",1
same,"Therapeutic Index = IC50 stimulated PBMC/IC50 cancer cell, AVERAGE","stimulated PBMC; average across the 7 cancer cell lines, Table VII",4

# Source: patent US11712443B2, “17α-monoesters and 17α,21-diesters of cortexolone for use in the treatment of tumors” (COSMO TECHNOLOGIES LTD., priority 2014, dated 2023)
